Measured values taken from US20220323429A1, “PIMAVANSERIN FOR TREATING NEURODEGENERATIVE DISEASES” (ACADIA Pharmaceuticals Inc., priority 2019, published 2022).

Test: Assay from diluted impurity samples (mass balance), in-use stability
Assay type: physicochemical
Conditions: for Assay (%) from diluted impurity sample: ambient; for Absolute Difference from Time 0 (%): diluted impurity sample
Experimental: Analytical HPLC Stability Study experiments (Example 1) were performed on Agilent 1200 Series, or equivalent; Waters XBridge C18 column, 5 μm 150×4.6 mm; mobile phase: Solvent A: 50 mM ammonium bicarbonate, pH 8.0; Solvent B: acetonitrile/methanol, 80:20 (v/v); Flow rate: 1 mL/min; Inj. Volume 20 μL; Autosampler Temp. 5° C.; column temperature: 40° C., detection UV at 210 nm; sample concentration (as free base) assay: 0.068 mg/mL, impurity: 0.68 mg/mL; standard concentration (as free base) 0.068 mg/mL; PLOQ Std. 0.05% of 0.68 mg/mL; SST solution, 1% of 0.68 mg/mL (impurities A, C, D, E, F, and G); diluent for standards 80/20 (v/v) ethanol/water; diluent for samples, ethanol; run time 40 min; gradient method: 0 min mobile phase A (90%) and mobile phase B (10%) to 30 min mobile phase A (0%), and mobile phase B (100%); then 30.1 min to 40 min mobile phase A (90%), mobile phase B (10%).
For each sample, one capsule was weighed, and the content of each capsule was dropped into a 50 mL volumetric flask and the empty capsule shell was weighed and discarded. The specified amount of each vehicle was added as specified in Table 3, below.
The flasks were gently swirled to ensure the capsule contents were visually incorporated with the vehicle. The flasks were kept on the bench at ambient temperature for each time point: 2, 4, and 24 hours. Time 0 samples were processed immediately. At the specified time point a stir bar and approximately 45 mL of diluent were added to the flask. The solution was stirred vigorously for 2 hours, and the flask was left on the bench overnight. The next day the flasks were sonicated for approximately 30 minutes. The stir bar was removed and rinsed carefully with diluent into the flask, and the flask was diluted to volume with diluent and mixed well by inversion. An aliquot of each solution was centrifuged for 5 minutes at 10000 rpm. The supernatant was transferred to a HPLC vial, and injected for analysis.
Samples were prepared by transferring the stock volume using a volumetric pipet into a 20 mL volumetric flask, diluted to volume with diluent, and mixed well by inversion. An aliquot of each solution was centrifuged for 5 minutes at 10000 rpm. The supernatant was transferred to a HPLC vial and injected for analysis.

In the case of `CC(C)COc1ccc(CNC(=O)N(Cc2ccc(F)cc2)C2CCN(C)CC2)cc1` [Pimavanserin, N-(4-Fluorophenylmethyl)-N-(1-methylpiperidin-4-yl)-N′-(4-(2-methylpropyloxy)phenylmethyl)carbamide], the “Assay (%) from diluted impurity sample” value (Ensure 5 mL, T = 0) is reported as 97.1%, the “Assay (%) from diluted impurity sample” value (Ensure 5 mL, T = 2 h) is reported as 94.6% and the “Assay (%) from diluted impurity sample” value (Ensure 5 mL, T = 4 h) is reported as 97.9%. For the same molecule, the “Assay (%) from diluted impurity sample” value (Ensure 5 mL, T = 24 h) was 97.3%, the “Absolute Difference from Time 0 (%)” value (Ensure, T = 0) was 2.9% and the “Absolute Difference from Time 0 (%)” value (Ensure, T = 2 h) was 5.4%. For the same molecule, the “Absolute Difference from Time 0 (%)” value (Ensure, T = 4 h) was 2.1%, the “Absolute Difference from Time 0 (%)” value (Ensure, T = 24 h) was 2.7% and the “Assay (%) from diluted impurity sample” value (applesauce 5 g, T = 0) was 97.5%. The “Assay (%) from diluted impurity sample” value (applesauce 5 g, T = 2 h) was 99.4%, the “Assay (%) from diluted impurity sample” value (applesauce 5 g, T = 4 h) was 104.1% and the “Assay (%) from diluted impurity sample” value (applesauce 5 g, T = 24 h) was 99.5%. The “Absolute Difference from Time 0 (%)” value (applesauce, T = 0) was 4.4%, the “Absolute Difference from Time 0 (%)” value (applesauce, T = 2 h) was 2.5% and the “Absolute Difference from Time 0 (%)” value (applesauce, T = 4 h) was 2.2%. For the same molecule, the “Absolute Difference from Time 0 (%)” value (applesauce, T = 24 h) was 2.4%, the “assay results difference from time 0” value (diluted impurity samples, all vehicles and times) was no more than 5% and the “Assay (%) from diluted impurity sample” value (orange juice 5 mL, T = 0) was 97.7%. The “Assay (%) from diluted impurity sample” value (orange juice 5 mL, T = 2 h) was 97.5%, the “Assay (%) from diluted impurity sample” value (orange juice 5 mL, T = 4 h) was 96.4% and the “Assay (%) from diluted impurity sample” value (orange juice 5 mL, T = 24 h) was 99.2%. The “Absolute Difference from Time 0 (%)” value (orange juice, T = 0) was 2.6%, the “Absolute Difference from Time 0 (%)” value (orange juice, T = 2 h) was 2.8% and the “Absolute Difference from Time 0 (%)” value (orange juice, T = 4 h) was 3.9%. The “Absolute Difference from Time 0 (%)” value (orange juice, T = 24 h) was 1.1%, the “Assay (%) from diluted impurity sample” value (water 5 mL, T = 0) was 95.6% and the “Assay (%) from diluted impurity sample” value (water 5 mL, T = 2 h) was 98.2%. For the same molecule, the “Assay (%) from diluted impurity sample” value (water 5 mL, T = 4 h) was 97.1%, the “Assay (%) from diluted impurity sample” value (water 5 mL, T = 24 h) was 97.5% and the “Absolute Difference from Time 0 (%)” value (water, T = 0) was 3.3%. The “Absolute Difference from Time 0 (%)” value (water, T = 2 h) was 0.7%, the “Absolute Difference from Time 0 (%)” value (water, T = 4 h) was 1.8% and the “Absolute Difference from Time 0 (%)” value (water, T = 24 h) was 1.4%.
